Measured values as given in patent publication US7241795B2, “Synthesis and antimicrobial activity of novel dicationic “reversed amidines”” (The University of North Carolina at Chapel Hill, priority 2000, dated 2007).
Values after ≈ are worked out from the molar mass of the structure shown. Where two headings read alike, the source gives them in different places.

Key:
Candida albicans = experiment: Antifungal broth macrodilution susceptibility testing (MIC/MFC), yeast; format: cell-based; settings: for MIC80 / MIC / MFC: Candida albicans; for MIC80: 80% of inoculum inhibited
poly dA•dT = experiment: DNA thermal melting (ΔTm); format: binding
Aspergillus flavus = experiment: Expanded fungus panel, broth macrodilution (MIC/MFC), mold; format: cell-based; settings: for MIC: Aspergillus flavus, 100% of inoculum inhibited
Rhizopus arrhizus = experiment: as above; format: cell-based
Crytococcus neoformans = experiment: Expanded fungus panel, broth macrodilution (MIC/MFC), yeast; format: cell-based; settings: Cryptococcus neoformans, Crytococcus neoformans isolate H99
d(CGCGAATTCGCG)2 = experiment: DNA thermal melting (ΔTm); format: binding; settings: oligo = d(CGCGAATTCGCG)2
Fusarium solani = experiment: Expanded fungus panel, broth macrodilution (MIC/MFC), mold; format: cell-based
M. tuberculosis H37Rv = experiment: Microplate Alamar Blue Assay (MABA) in BACTEC 12B medium; format: cell-based, Mycobacterium tuberculosis; settings: Mycobacterium tuberculosis, H37RV; lowest concentration effecting ≧90% reduction of fluorescence; read-out: MTb MIC
Aspergillus fumigatus = experiment: Antifungal broth macrodilution susceptibility testing (MIC/MFC), mold; format: cell-based; settings: for MIC80: 80% of inoculum inhibited
other pathogenic fungi = experiment: Expanded fungus panel, overall; format: cell-based
Experimental: Antifungal Test Organisms. The fungi used in this study for all the compounds in Table 1 included two reference strains C. albicans A39 and Aspergillus fumigatus (strain 168.95).
Medium. Antifungal susceptibility testing was performed with RPMI 1640 medium (Sigma Chemical Co., St. Louis, Mo.) with glutamine, but without sodium bicarbonate and buffered at pH 7.0 with 0.165 M morpholinopropanesulfonic acid.
Antifungal In Vitro Susceptibility Testing. Experiments for determination of MICs of yeasts were performed by the broth macrodilution method according to the recommendations of the National Committee for Clinical Laboratory Standards. See National Committee for Clinical Laboratory Standards. Reference method for broth dilution susceptibility testing of yeasts Document M27-T. Tentative standard, National Committee for Clinical Laboratory Standards, Wayne, Pa., 1995). […] Briefly, this method specifies the use of an inoculum grown at 35° C. and adjusted to a concentration of 0.5×10^3 to 2.5×10^3 CFU/ml, incubation of the culture at 35° C., and reading at 48 h for all yeasts except for C. neoformans, for which the results are interpreted at 72 h. […]
The minimum fungicidal concentration (MFC) was determined by plating 100 μl aliquots from tubes showing complete inhibition of growth on Sabouraud agar plates. The lowest drug concentration that yielded three or fewer colonies was recorded as the MFC. […]

[1] = reference strain C. albicans A39, read-out: C. albicans MFC
[2] = reference strain C. albicans A39, read-out: C. albicans MIC
[3] = Aspergillus flavus isolate 107.96
[4] = Aspergillus flavus isolate 141.88
[5] = Aspergillus fumigatus, strain 168.95, read-out: Aspergillus fumigatus MIC

## Cc1ccc(N=Nc2ccc(-c3ccc(-c4ccc(N=Nc5ccc(C)cn5)cc4C)o3)c(C)c2)nc1 [Compound 6j, 2,5-Bis[2-methyl-4-(5-methyl-2-pyridylimino)aminophenyl]furan]
Candida albicans
  activity against C. albicans, in words: quite effective
Candida albicans; Candida albicans isolate 116.98
  MIC80: 1.56 µg/mL (≈ 3.21 µM)
Candida albicans; Candida albicans isolate 116.98, 100% of inoculum inhibited, read-out: MIC 100%
  MIC: 1.56 µg/mL (≈ 3.21 µM)
Candida albicans; Candida albicans isolate 116.98, read-out: MFC
  MFC: > 100 µg/mL
Candida albicans; Candida albicans isolate 117.00
  MIC80: 0.78 µg/mL (≈ 1.6 µM)
Candida albicans; Candida albicans isolate 117.00, 100% of inoculum inhibited, read-out: MIC 100%
  MIC: 3.12 µg/mL (≈ 6.41 µM)
Candida albicans; Candida albicans isolate 117.00, read-out: MFC
  MFC: 25 µg/mL (≈ 51.4 µM)
Candida albicans; Candida albicans isolate 126.97
  MIC80: 1.56 µg/mL (≈ 3.21 µM)
Candida albicans; Candida albicans isolate 126.97, 100% of inoculum inhibited, read-out: MIC 100%
  MIC: 3.12 µg/mL (≈ 6.41 µM)
Candida albicans; Candida albicans isolate 126.97, read-out: MFC
  MFC: 3.12 µg/mL (≈ 6.41 µM)
Candida albicans; Candida albicans isolate 149.97
  MIC80: 0.78 µg/mL (≈ 1.6 µM)
Candida albicans; Candida albicans isolate 149.97, 100% of inoculum inhibited, read-out: MIC 100%
  MIC: 1.56 µg/mL (≈ 3.21 µM)
Candida albicans; Candida albicans isolate 149.97, read-out: MFC
  MFC: 6.25 µg/mL (≈ 12.8 µM)
Candida albicans; Candida albicans isolate 156.97
  MIC80: 1.56 µg/mL (≈ 3.21 µM)
Candida albicans; Candida albicans isolate 156.97, 100% of inoculum inhibited, read-out: MIC 100%
  MIC: 3.15 µg/mL (≈ 6.47 µM)
Candida albicans; Candida albicans isolate 156.97, read-out: MFC
  MFC: > 100 µg/mL
Candida albicans; Candida albicans isolate 159.95
  MIC80: 0.79 µg/mL (≈ 1.62 µM)
Candida albicans; Candida albicans isolate 159.95, 100% of inoculum inhibited, read-out: MIC 100%
  MIC: 1.58 µg/mL (≈ 3.25 µM)
Candida albicans; Candida albicans isolate 159.95, read-out: MFC
  MFC: 3.12 µg/mL (≈ 6.41 µM)
Candida albicans; Candida albicans isolate A39
  MIC80: 1.56 µg/mL (≈ 3.21 µM)
Candida albicans; Candida albicans isolate A39, 100% of inoculum inhibited, read-out: MIC 100%
  MIC: 1.56 µg/mL (≈ 3.21 µM)
Candida albicans; Candida albicans isolate A39, expanded panel, read-out: MFC
  MFC: 25 µg/mL (≈ 51.4 µM)
Candida albicans; read-out: C. albicans MIC
  MIC: ≤ 1 µg/mL
Candida albicans; [1]
  MFC: 10 µg/mL (≈ 20.6 µM)
Candida albicans; [2]
  MIC: ≤ 2 µg/mL
Poly dA•dT
  DNA Affinities ΔTm (AT): 24.3
Aspergillus flavus
  activity versus Aspergillus flavus, in words: less effective
Aspergillus flavus; [3]
  MFC: >100 µg/mL
  MIC: 50 µg/mL (≈ 103 µM)
Aspergillus flavus; Aspergillus flavus isolate 107.96, 80% of inoculum inhibited
  MIC 80%: 3.12 µg/mL (≈ 6.41 µM)
Aspergillus flavus; [4]
  MFC: >100 µg/mL
  MIC: 50 µg/mL (≈ 103 µM)
Aspergillus flavus; Aspergillus flavus isolate 141.88, 80% of inoculum inhibited
  MIC 80%: 3.12 µg/mL (≈ 6.41 µM)
Aspergillus flavus; Aspergillus flavus isolate 194.99, 80% of inoculum inhibited
  MIC80: 3.12 µg/mL (≈ 6.41 µM)
Aspergillus flavus; Aspergillus flavus isolate 194.99, read-out: MFC
  MFC: > 100 µg/mL
Aspergillus flavus; Aspergillus flavus isolate 194.99
  MIC: 6.25 µg/mL (≈ 12.8 µM)
Rhizopus arrhizus
  activity versus Rhizopus arrhizus, in words: good fungicidal activity
Rhizopus arrhizus; Rhizopus arrhizus isolate 117.89
  MFC: 1.56 µg/mL (≈ 3.21 µM)
Rhizopus arrhizus; Rhizopus arrhizus isolate 117.89, 80% of inoculum inhibited
  MIC80: 0.78 µg/mL (≈ 1.6 µM)
Rhizopus arrhizus; Rhizopus arrhizus isolate 117.89, 100% of inoculum inhibited
  MIC: 1.56 µg/mL (≈ 3.21 µM)
Crytococcus neoformans
  MFC: > 100 µg/mL
Crytococcus neoformans; 80% of inoculum inhibited
  MIC80: 1.56 µg/mL (≈ 3.21 µM)
Crytococcus neoformans; 100% of inoculum inhibited
  MIC: 1.56 µg/mL (≈ 3.21 µM)
d(CGCGAATTCGCG)2
  DNA Affinities ΔTm (oligo): 10.8
Fusarium solani
  activity against Fusarium solani, in words: not very effective
Fusarium solani; Fusarium solani isolate 152.89
  MFC: 50 µg/mL (≈ 103 µM)
Fusarium solani; Fusarium solani isolate 152.89, 80% of inoculum inhibited
  MIC80: 3.12 µg/mL (≈ 6.41 µM)
Fusarium solani; Fusarium solani isolate 152.89, 100% of inoculum inhibited
  MIC: 50 µg/mL (≈ 103 µM)
M. tuberculosis H37Rv
  MIC: 1 to 2 µg/mL (≈ 2.06 to 4.11 µM)
Aspergillus fumigatus
  activity against Aspergillus fumigatus, in words: less effective
Aspergillus fumigatus; Aspergillus fumigatus isolate 119.00, read-out: MFC
  MFC: > 100 µg/mL
Aspergillus fumigatus; Aspergillus fumigatus isolate 153.90
  MFC: >100 µg/mL
Aspergillus fumigatus; Aspergillus fumigatus isolate 165.86
  MFC: >100 µg/mL
Aspergillus fumigatus; Aspergillus fumigatus isolate 168.95, expanded panel
  MFC: >100 µg/mL
Aspergillus fumigatus; Aspergillus fumigatus isolate 182.99
  MFC: >100 µg/mL
Aspergillus fumigatus; Aspergillus fumigatus, Aspergillus fumigatus isolate 119.00
  MIC80: 3.12 µg/mL (≈ 6.41 µM)
Aspergillus fumigatus; Aspergillus fumigatus, Aspergillus fumigatus isolate 119.00, 100% of inoculum inhibited, read-out: MIC 100%
  MIC: 50 µg/mL (≈ 103 µM)
Aspergillus fumigatus; Aspergillus fumigatus, Aspergillus fumigatus isolate 153.90
  MIC80: 3.12 µg/mL (≈ 6.41 µM)
Aspergillus fumigatus; Aspergillus fumigatus, Aspergillus fumigatus isolate 153.90, 100% of inoculum inhibited, read-out: MIC 100%
  MIC: 50 µg/mL (≈ 103 µM)
Aspergillus fumigatus; Aspergillus fumigatus, Aspergillus fumigatus isolate 165.86
  MIC80: 50 µg/mL (≈ 103 µM)
Aspergillus fumigatus; Aspergillus fumigatus, Aspergillus fumigatus isolate 165.86, 100% of inoculum inhibited, read-out: MIC 100%
  MIC: 50 µg/mL (≈ 103 µM)
Aspergillus fumigatus; Aspergillus fumigatus, Aspergillus fumigatus isolate 168.95
  MIC80: 50 µg/mL (≈ 103 µM)
Aspergillus fumigatus; Aspergillus fumigatus, Aspergillus fumigatus isolate 168.95, 100% of inoculum inhibited, read-out: MIC 100%
  MIC: 50 µg/mL (≈ 103 µM)
Aspergillus fumigatus; Aspergillus fumigatus, Aspergillus fumigatus isolate 182.99
  MIC80: 3.12 µg/mL (≈ 6.41 µM)
Aspergillus fumigatus; Aspergillus fumigatus, Aspergillus fumigatus isolate 182.99, 100% of inoculum inhibited, read-out: MIC 100%
  MIC: 50 µg/mL (≈ 103 µM)
Aspergillus fumigatus; [5]
  MIC: 10 µg/mL (≈ 20.6 µM)

## COc1cc(N=Nc2ccccn2)ccc1-c1ccc(-c2ccc(N=Nc3ccccn3)cc2OC)o1 [Compound 6k, 2,5-Bis[2-methoxy-4-(2-pyridylimino)aminophenyl]furan]
Candida albicans
  activity against C. albicans, in words: fungicidal
Candida albicans; read-out: C. albicans MIC
  MIC: ≤ 1 µg/mL
Candida albicans; [1]
  MFC: ≤ 1 µg/mL
Candida albicans; [2]
  MIC: ≤ 2 µg/mL
Poly dA•dT
  DNA Affinities ΔTm (AT): 19.0
Other pathogenic fungi
  activity in the expanded fungus panel, in words: did not show significant activity
d(CGCGAATTCGCG)2
  DNA Affinities ΔTm (oligo): 7.8
M. tuberculosis H37Rv
  MIC: 1 to 2 µg/mL (≈ 2.04 to 4.08 µM)
Aspergillus fumigatus
  activity against Aspergillus fumigatus, in words: fungicidal
Aspergillus fumigatus; Aspergillus fumigatus, read-out: Aspergillus fumigatus MIC
  MIC: ≤ 1 µg/mL
Aspergillus fumigatus; Aspergillus fumigatus, strain 168.95, read-out: Aspergillus fumigatus MFC
  MFC: ≤ 1 µg/mL
Aspergillus fumigatus; [5]
  MIC: 1 µg/mL (≈ 2.04 µM)
